# Results published in PubChem BioAssay (NCI).
#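 Test compounds were applied to cells in 96-well plates for 48 hours at 5 doses. GI50 is the concentration that inhibits growth by half. TGI: total growth inhibition.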
# Legend:
# Test in all cases: NCI anticancer screen, dose series, 48 h
# 786-0 renal = tested on: 786-0 renal
# SK-OV-3 ovarian = tested on: SK-OV-3 ovarian
# U251 CNS = tested on: U251 CNS
# M14 melanoma = tested on: M14 melanoma
# SNB-75 CNS = tested on: SNB-75 CNS
# A549 NSCLC = tested on: A549 NSCLC
# IGROV1 ovarian = tested on: IGROV1 ovarian
# UACC-257 melanoma = tested on: UACC-257 melanoma
# RXF 393 renal = tested on: RXF 393 renal
# HCT-15 colon = tested on: HCT-15 colon
# SK-MEL-2 melanoma = tested on: SK-MEL-2 melanoma
# HCC-2998 colon = tested on: HCC-2998 colon
# SF-295 CNS = tested on: SF-295 CNS
# HCT-116 colon = tested on: HCT-116 colon
# T-47D breast = tested on: T-47D breast
# SK-MEL-28 melanoma = tested on: SK-MEL-28 melanoma
# HS 578T breast = tested on: HS 578T breast
# SW-620 colon = tested on: SW-620 colon
# NCI-H460 lung = tested on: NCI-H460 lung
# SF-539 CNS = tested on: SF-539 CNS
# HL-60(TB) leukemia = tested on: HL-60(TB) leukemia
# COLO 205 colon = tested on: COLO 205 colon
# NCI-H23 lung = tested on: NCI-H23 lung
# MDA-MB-435 = tested on: MDA-MB-435
# MOLT-4 leukemia = tested on: MOLT-4 leukemia
# MALME-3M melanoma = tested on: MALME-3M melanoma
# BT-549 breast = tested on: BT-549 breast
# OVCAR-5 ovarian = tested on: OVCAR-5 ovarian
# NCI-H522 lung = tested on: NCI-H522 lung
# KM12 colon = tested on: KM12 colon
# MDA-MB-231 breast = tested on: MDA-MB-231 breast
# MDA-MB-468 breast = tested on: MDA-MB-468 breast
# ACHN renal = tested on: ACHN renal
# SN12C renal = tested on: SN12C renal
# MCF7 breast = tested on: MCF7 breast
# OVCAR-8 ovarian = tested on: OVCAR-8 ovarian
# NCI/ADR-RES ovarian = tested on: NCI/ADR-RES ovarian
# HT29 colon = tested on: HT29 colon
# NCI-H226 lung = tested on: NCI-H226 lung
# UACC-62 melanoma = tested on: UACC-62 melanoma
# LOX IMVI melanoma = tested on: LOX IMVI melanoma
# OVCAR-3 ovarian = tested on: OVCAR-3 ovarian
# UO-31 renal = tested on: UO-31 renal
# SK-MEL-5 melanoma = tested on: SK-MEL-5 melanoma
# HOP-92 NSCLC = tested on: HOP-92 NSCLC
# EKVX NSCLC = tested on: EKVX NSCLC
# A498 renal = tested on: A498 renal
# TK-10 renal = tested on: TK-10 renal
# SNB-19 CNS = tested on: SNB-19 CNS
# CAKI-1 renal = tested on: CAKI-1 renal
# PC-3 prostate = tested on: PC-3 prostate
# HOP-62 NSCLC = tested on: HOP-62 NSCLC
# CCRF-CEM leukemia = tested on: CCRF-CEM leukemia
# SR leukemia = tested on: SR leukemia
# DU-145 prostate = tested on: DU-145 prostate
# OVCAR-4 ovarian = tested on: OVCAR-4 ovarian
# SF-268 CNS = tested on: SF-268 CNS
# K-562 leukemia = tested on: K-562 leukemia
# RPMI-8226 leukemia = tested on: RPMI-8226 leukemia
smiles,measurement,setting,value
O/N=C(\CSc1nnc(-c2c[nH]c3ccccc23)n1-c1ccccc1)c1ccc(Br)cc1,GI50,786-0 renal,6.85 µM
same,TGI,786-0 renal,27 µM
same,GI50,SK-OV-3 ovarian,2.53 µM
same,TGI,SK-OV-3 ovarian,6.03 µM
same,GI50,U251 CNS,4.38 µM
same,TGI,U251 CNS,17.3 µM
same,GI50,M14 melanoma,3.4 µM
same,TGI,M14 melanoma,17.6 µM
same,GI50,SNB-75 CNS,1.87 µM
same,TGI,SNB-75 CNS,4.95 µM
same,GI50,A549 NSCLC,2.49 µM
same,TGI,A549 NSCLC,6.66 µM
same,GI50,IGROV1 ovarian,3.41 µM
same,TGI,IGROV1 ovarian,11.7 µM
same,GI50,UACC-257 melanoma,3.87 µM
same,TGI,UACC-257 melanoma,17.5 µM
same,GI50,RXF 393 renal,1.75 µM
same,TGI,RXF 393 renal,3.65 µM
same,GI50,HCT-15 colon,2.11 µM
same,TGI,HCT-15 colon,4.72 µM
same,GI50,SK-MEL-2 melanoma,3.1 µM
same,TGI,SK-MEL-2 melanoma,10.4 µM
same,GI50,HCC-2998 colon,3.36 µM
same,TGI,HCC-2998 colon,12.3 µM
same,GI50,SF-295 CNS,1.93 µM
same,TGI,SF-295 CNS,4.7 µM
same,GI50,HCT-116 colon,3.45 µM
same,TGI,HCT-116 colon,17.4 µM
same,GI50,T-47D breast,3.51 µM
same,TGI,T-47D breast,17.2 µM
same,GI50,SK-MEL-28 melanoma,3.4 µM
same,TGI,SK-MEL-28 melanoma,12.5 µM
same,GI50,HS 578T breast,2.84 µM
same,TGI,HS 578T breast,11.9 µM
same,GI50,SW-620 colon,3.28 µM
same,TGI,SW-620 colon,12.1 µM
same,GI50,NCI-H460 lung,3.53 µM
same,TGI,NCI-H460 lung,12.9 µM
same,GI50,SF-539 CNS,4.04 µM
same,TGI,SF-539 CNS,14.2 µM
same,GI50,HL-60(TB) leukemia,1.92 µM
same,TGI,HL-60(TB) leukemia,4.55 µM
same,GI50,COLO 205 colon,3.8 µM
same,TGI,COLO 205 colon,16.6 µM
same,GI50,NCI-H23 lung,4.31 µM
same,TGI,NCI-H23 lung,19.6 µM
same,GI50,MDA-MB-435,2.01 µM
same,TGI,MDA-MB-435,3.89 µM
same,GI50,MOLT-4 leukemia,2.09 µM
same,TGI,MOLT-4 leukemia,4.8 µM
same,GI50,MALME-3M melanoma,3.22 µM
same,TGI,MALME-3M melanoma,14.3 µM
same,GI50,BT-549 breast,3.16 µM
same,TGI,BT-549 breast,7.25 µM
same,GI50,OVCAR-5 ovarian,2.18 µM
same,TGI,OVCAR-5 ovarian,5.21 µM
same,GI50,NCI-H522 lung,2.52 µM
same,TGI,NCI-H522 lung,7.7 µM
same,GI50,KM12 colon,4.15 µM
same,TGI,KM12 colon,29.2 µM
same,GI50,MDA-MB-231 breast,1.71 µM
same,TGI,MDA-MB-231 breast,3.26 µM
same,GI50,MDA-MB-468 breast,1.72 µM
same,TGI,MDA-MB-468 breast,3.3 µM
same,GI50,ACHN renal,2.53 µM
same,TGI,ACHN renal,7.05 µM
same,GI50,SN12C renal,2.52 µM
same,TGI,SN12C renal,7.97 µM
same,GI50,MCF7 breast,3.49 µM
same,TGI,MCF7 breast,15.3 µM
same,GI50,OVCAR-8 ovarian,2.45 µM
same,TGI,OVCAR-8 ovarian,6.5 µM
same,GI50,NCI/ADR-RES ovarian,1.9 µM
same,TGI,NCI/ADR-RES ovarian,3.91 µM
same,GI50,HT29 colon,2.23 µM
same,TGI,HT29 colon,5.03 µM
same,GI50,NCI-H226 lung,3.33 µM
same,TGI,NCI-H226 lung,14.9 µM
same,GI50,UACC-62 melanoma,1.77 µM
same,TGI,UACC-62 melanoma,3.74 µM
same,GI50,LOX IMVI melanoma,1.71 µM
same,TGI,LOX IMVI melanoma,3.12 µM
same,GI50,OVCAR-3 ovarian,4.98 µM
same,TGI,OVCAR-3 ovarian,23.8 µM
same,GI50,UO-31 renal,2.29 µM
same,TGI,UO-31 renal,7.81 µM
same,GI50,SK-MEL-5 melanoma,3.55 µM
same,TGI,SK-MEL-5 melanoma,12.8 µM
same,GI50,HOP-92 NSCLC,3.66 µM
same,TGI,HOP-92 NSCLC,24.1 µM
same,GI50,EKVX NSCLC,2.6 µM
same,TGI,EKVX NSCLC,9.09 µM
same,GI50,A498 renal,16.3 µM
same,TGI,A498 renal,51.7 µM
same,GI50,TK-10 renal,2.8 µM
same,TGI,TK-10 renal,7.63 µM
same,GI50,SNB-19 CNS,4.33 µM
same,TGI,SNB-19 CNS,19.8 µM
same,GI50,CAKI-1 renal,2.63 µM
same,TGI,CAKI-1 renal,8.1 µM
same,GI50,PC-3 prostate,2.15 µM
same,TGI,PC-3 prostate,4.96 µM
COC[C@@H](CC(C)C)N=C1N/C(=C\c2ccc3ncsc3c2)C(=O)N1C,GI50,HOP-62 NSCLC,2.23 µM
same,TGI,HOP-62 NSCLC,8.86 µM
same,GI50,786-0 renal,3.48 µM
same,TGI,786-0 renal,> 100 µM
same,GI50,SK-OV-3 ovarian,1.96 µM
same,TGI,SK-OV-3 ovarian,9.82 µM
same,GI50,U251 CNS,2.35 µM
same,TGI,U251 CNS,> 100 µM
same,GI50,M14 melanoma,4.11 µM
same,TGI,M14 melanoma,> 100 µM
same,GI50,SNB-75 CNS,0.0476 µM
same,TGI,SNB-75 CNS,4.84 µM
same,GI50,A549 NSCLC,2.05 µM
same,TGI,A549 NSCLC,> 100 µM
same,GI50,IGROV1 ovarian,2.26 µM
same,TGI,IGROV1 ovarian,> 100 µM
same,GI50,CCRF-CEM leukemia,2.55 µM
same,TGI,CCRF-CEM leukemia,18.6 µM
same,GI50,UACC-257 melanoma,2.81 µM
same,TGI,UACC-257 melanoma,> 100 µM
same,GI50,RXF 393 renal,2.18 µM
same,TGI,RXF 393 renal,6.85 µM
same,GI50,HCT-15 colon,2.01 µM
same,TGI,HCT-15 colon,> 100 µM
same,GI50,SK-MEL-2 melanoma,1.53 µM
same,TGI,SK-MEL-2 melanoma,3.77 µM
same,GI50,HCC-2998 colon,2.67 µM
same,TGI,HCC-2998 colon,18.6 µM
same,GI50,SF-295 CNS,3.25 µM
same,TGI,SF-295 CNS,> 100 µM
same,GI50,HCT-116 colon,1.22 µM
same,TGI,HCT-116 colon,> 100 µM
same,GI50,T-47D breast,2.01 µM
same,TGI,T-47D breast,> 100 µM
same,GI50,SK-MEL-28 melanoma,2.93 µM
same,TGI,SK-MEL-28 melanoma,8.72 µM
same,GI50,HS 578T breast,2.03 µM
same,TGI,HS 578T breast,9.14 µM
same,GI50,SR leukemia,2.17 µM
same,TGI,SR leukemia,24.9 µM
same,GI50,SW-620 colon,1.54 µM
same,TGI,SW-620 colon,> 100 µM
same,GI50,NCI-H460 lung,2.61 µM
same,TGI,NCI-H460 lung,> 100 µM
same,GI50,DU-145 prostate,3.22 µM
same,TGI,DU-145 prostate,> 100 µM
same,GI50,SF-539 CNS,0.958 µM
same,TGI,SF-539 CNS,7.12 µM
same,GI50,HL-60(TB) leukemia,2.55 µM
same,TGI,HL-60(TB) leukemia,8.29 µM
same,GI50,COLO 205 colon,1.97 µM
same,TGI,COLO 205 colon,7.26 µM
same,GI50,NCI-H23 lung,2.02 µM
same,TGI,NCI-H23 lung,14.2 µM
same,GI50,MDA-MB-435,3.72 µM
same,TGI,MDA-MB-435,> 100 µM
same,GI50,MOLT-4 leukemia,2.8 µM
same,TGI,MOLT-4 leukemia,> 100 µM
same,GI50,MALME-3M melanoma,2.36 µM
same,TGI,MALME-3M melanoma,8.53 µM
same,GI50,OVCAR-4 ovarian,4.29 µM
same,TGI,OVCAR-4 ovarian,> 100 µM
same,GI50,BT-549 breast,2.01 µM
same,TGI,BT-549 breast,9.51 µM
same,GI50,OVCAR-5 ovarian,4.15 µM
same,TGI,OVCAR-5 ovarian,> 100 µM
same,GI50,NCI-H522 lung,1.34 µM
same,TGI,NCI-H522 lung,6.03 µM
same,GI50,KM12 colon,2.36 µM
same,TGI,KM12 colon,> 100 µM
same,GI50,MDA-MB-231 breast,3.9 µM
same,TGI,MDA-MB-231 breast,> 100 µM
same,GI50,SF-268 CNS,2.85 µM
same,TGI,SF-268 CNS,> 100 µM
same,GI50,K-562 leukemia,1.76 µM
same,TGI,K-562 leukemia,> 100 µM
same,GI50,MDA-MB-468 breast,0.999 µM
same,TGI,MDA-MB-468 breast,6.09 µM
same,GI50,SN12C renal,3 µM
same,TGI,SN12C renal,> 100 µM
same,GI50,MCF7 breast,2.57 µM
same,TGI,MCF7 breast,22.2 µM
same,GI50,OVCAR-8 ovarian,2.65 µM
same,TGI,OVCAR-8 ovarian,> 100 µM
same,GI50,HT29 colon,3.27 µM
same,TGI,HT29 colon,16.2 µM
same,GI50,LOX IMVI melanoma,2.34 µM
same,TGI,LOX IMVI melanoma,> 100 µM
same,GI50,OVCAR-3 ovarian,1.23 µM
same,TGI,OVCAR-3 ovarian,5.31 µM
same,GI50,UO-31 renal,1.87 µM
same,TGI,UO-31 renal,7.21 µM
same,GI50,RPMI-8226 leukemia,2.7 µM
same,TGI,RPMI-8226 leukemia,12.3 µM
same,GI50,SK-MEL-5 melanoma,1.77 µM
same,TGI,SK-MEL-5 melanoma,4.62 µM
same,GI50,EKVX NSCLC,3.06 µM
same,TGI,EKVX NSCLC,> 100 µM
same,GI50,A498 renal,1.2 µM
same,TGI,A498 renal,4.97 µM
same,GI50,TK-10 renal,3.8 µM
same,TGI,TK-10 renal,> 100 µM
same,GI50,SNB-19 CNS,0.999 µM
same,TGI,SNB-19 CNS,> 100 µM
same,GI50,CAKI-1 renal,1.73 µM
same,TGI,CAKI-1 renal,> 100 µM
same,GI50,PC-3 prostate,4.24 µM
same,TGI,PC-3 prostate,> 100 µM
